# Measurements from patent publication US4734282A, “Rodenticidal compositions containing 1,4-naphthoquinone derivatives” (priority 1986, dated 1988).
# Where “and” joins values, the source holds several entries; their conditions need not be identical. Equal values may be shown once. Read-outs that look alike come from different tables or passages of the source.
# Legend:
# [1] = system: vitamin K-dependent carboxylation; assay: in vitro rat hepatic microsomal vitamin K-dependent carboxylation of endogenous substrate, inhibition by vitamin K antagonists; type: biochemical; details: for Slope (% Inhibition/Concentration), mean ± S.D.: slope parameter s of logistic function; for IO (percent inhibition when C = 0), mean: third fit parameter of logistic function
# Protocol: (§1) The procedures for preparation of vitamin K-dependent carboxylase and assay of carboxylation were similar to those described in other laboratories (J. Biol. Chem. 251, 2770-2776; Biochim. Biophys. Acta 499, 181-193). Each animal was studied under both control and inhibitory conditions. The rats were rendered unconscious with nitrogen, the liver was quickly excised and minced in a total volume of 2.0 ml ice cold buffer I (0.25M sucrose, 0.025M imidazole, pH 7.20) per gram of liver. The liver was homogenized using 4 passes of a Teflon pestle (clearance 0.15-0.23 mm; Arthur H. Thomas Co., Philadelphia, Pa.) at 300 rpm. The post-mitochondrial supernatant and microsomal pellet were prepared by a published procedure (J. Biol. Chem. 251, 2770-2776). The microsomal pellet was resuspended in buffer II (0.25 M sucrose, 0.025M imidazole, 0.080M KCl, pH 7.20). This suspension supplied both the enzymes (vitamin K-dependent carboxylase and enzymes for vitamin K biotransformations) and endogenous substrates (precursors of vitamin K-dependent proteins) of interest. Microsomal suspension protein concentration was determined by the method of Bradford (Anal. Biochem. 72, 248-254) as described for Bio-Rad reagent and adjusted to approximately 15 mg/ml in buffer II.
# (§2) Control, blank, and experimental reaction mixtures were made for each experiment. Control and blank reaction mixtures were made up with vitamin K and without vitamin K, respectively. Experimental reaction mixtures contained both vitamin K and a vitamin K antagonist. The control reaction mixture contained 3.00 ml of microsomal suspension, 0.81 ml of buffer II, 1.20 ml of an ATP-generating system (final concentrations: 1 mM ATP, 10 mM phosphocreatine, 2.5 mM Mg[acetate]2 ·4H2 O, 20 μg/ml creatine phosphokinase [52 U/ml]), 0.60 ml of NADH (final concentration 2 mM), 0.30 ml of dithiothreitol (final concentration 7 mM) dissolved in buffer II, 0.060 ml of NaH^14 CO3 (1.0 μCi/μl; added 0.5 min prior to reaction initiation), and at the time of reaction initiation 0.030 ml of vitamin K1 (final concentration 20 μg/ml) diluted in 0.85% sodium chloride solution. This vitamin K concentration is associated with maximal in vitro incorporation of added H^14 CO3 into vitamin K-dependent substrate proteins (J. Biol. Chem. 251, 2770-2776). The blank reaction mixture consisted of the same components except that vitamin K was replaced by an equal volume of isotonic saline. The experimental reaction mixtures were made up in the same way as the control reaction mixtures with the exceptions that: (1) a volume of buffer II was replaced by a volume of buffer II containing an inhibitor of vitamin K-dependent carboxylation, and (2) all individual volumes were two-thirds of those in the control reaction mixtures. […] Chloro-K1 was formulated as an oil-in-water emulsion with Tween 80 (5% v/v final concentration), while chloro-K3 was formulated as a suspension in Tween 80 (5% v/v final concentration) (Molecular Pharmacology 10, 373-380).
# (§3) Reaction mixtures were incubated for 5 minutes at 100 excursions per minute in a reciprocating shaker water bath at 27° . After addition of vitamin K or saline, serial samples (0.45 ml each) were collected from each control and blank reaction tube at 2, 4, 6, 8, 10, 12, 14, 16, 30, 60, 90, and 120 minutes, and from each experimental reaction tube at 2, 4, 6, 8, 10, 12, 14, and 16 minutes. Each 0.45 ml sample was transferred to a tube containing 1 ml of ice-cold 10% TCA. The TCA-precipitated ^14 C-containing protein pellet was then prepared as previously described (J. Biol. Chem. 251, 2770-2776) and radioactivity was determined in an Intertechnique (Plaisir, France) liquid scintillation spectrometer using the external standard method of quench correction.
# [2] = system: vitamin K-dependent carboxylation; assay: in vitro vitamin K-dependent carboxylation in liver microsomes of pretreated rats; type: biochemical, rat; details: for Normalized P∞ / V/KM (intrinsic formation rate of carboxylated vitamin K-dependent proteins): individual pretreated rat; for V/KM (intrinsic formation rate of carboxylated vitamin K-dependent proteins): liver microsomes about 22 hours after warfarin
# Protocol: as §1, §2
# as §3, with “correction. […]” for “correction.”
# [3] = system: prothrombin complex activity; assay: in vivo prothrombin complex activity (PCA), its degradation and synthesis rate, from prothrombin time; parameters: species or system rat; details: for PCA° (steady-state prothrombin complex activity before warfarin) / kd (first-order rate constant for degradation of PCA) / R°Syn (rate of synthesis of PCA): individual pretreated rat; for kd (first-order rate constant for degradation of PCA): after 2 mg/kg i.v. warfarin; for R°Syn (rate of synthesis of PCA): PCA° × kd; for reduction in R°Syn: vs normal rats
# [4] = system: prothrombin complex activity; details: 2 mg/kg sodium warfarin i.v., approximately 19 hours prior to sacrifice; cited from earlier work
# [5] = system: rats; details: cited from earlier work
# [6] = percent inhibition of vitamin K-dependent carboxylation vs concentration, logistic fit per animal, vitamin K1 20 μg/ml, 27°, read-out: IC50 (mean ± S.D.)
# [7] = range among individual rats, read-out: IC50 (range)
structure (smiles),measurement,setting,value
"Oc1c(Cl)c(Cl)nc(Cl)c1Cl [TCP, 2,3,5,6-Tetrachloropyridin-4-ol]",difference between IC50 of most potent (TCP) and least potent (warfarin) compound,[1],"approximately 5,000 fold"
same,IC50,"[1]; as printed in discussion text, read-out: average IC50",1.23 µM
same,IC50,[1]; [6],1.23 ± 0.24 µM
same,"Slope (% Inhibition/Concentration), range",[1]; range among individual rats,0.734-1.02 % Inhibition/Concentration
same,IC50,[1]; [7],0.89 to 1.44 µM
same,"Slope (% Inhibition/Concentration), mean ± S.D.",[1],0.884 ± 0.117 % Inhibition/Concentration
"O=C1c2ccccc2C(=O)C1c1ccccc1 [Phenindione, phenindione]",IC50,[1]; [6],19 ± 11.2 µM
same,"Slope (% Inhibition/Concentration), range",[1]; range among individual rats,0.269-0.963 % Inhibition/Concentration
same,IC50,[1]; [7],7.36 to 30.2 µM
same,"Slope (% Inhibition/Concentration), mean ± S.D.",[1],0.475 ± 0.330 % Inhibition/Concentration
"CCC1(c2ccccc2)C(=O)NC(=O)NC1=O [Phenobarbital, Phenobarbital sodium]",Normalized P∞,[2],4.92 dpm ^14 C incorporated/mg prot and 5.86 dpm ^14 C incorporated/mg prot
same,V/KM (intrinsic formation rate of carboxylated vitamin K-dependent proteins),[2],0.1174 min⁻¹ and 0.1586 min⁻¹
same,PCA° (steady-state prothrombin complex activity before warfarin),[3],143.1% and 102.7%
same,kd (first-order rate constant for degradation of PCA),[3],4.31e-05 s⁻¹ and 4.77e-05 s⁻¹
same,R°Syn (rate of synthesis of PCA),[3],533 %/day and 423 %/day
same,average increase in PCA° beyond normal rats,[3]; two treated rats vs four normal rats,38%
same,average increase in R°Syn beyond normal rats,[3]; two treated rats vs normal rats,44%
"S=C=Nc1cccc2ccccc12 [ANIT, α-naphthylisothiocyanate]",Normalized P∞,[2],15.59 dpm ^14 C incorporated/mg prot
same,V/KM (intrinsic formation rate of carboxylated vitamin K-dependent proteins),[2],0.1104 min⁻¹
same,increase in normalized P∞,[2]; one treated rat vs normal,approximately 50%
same,PCA° (steady-state prothrombin complex activity before warfarin),[3],56.1% and 56%
same,kd (first-order rate constant for degradation of PCA),[3],3.19e-05 s⁻¹
same,R°Syn (rate of synthesis of PCA),[3],155 %/day
same,reduction in R°Syn,[3],approximately 53%
"O=C1C=C(Cl)C(=O)c2ccccc21 [Chloro-K3, 2-chloro-1,4-naphthoquinone]",times more potent than warfarin,[1]; in vitro rat hepatic vitamin K-dependent carboxylation system,45 times
same,IC50,[1]; [6],146 ± 62.1 µM
same,"Slope (% Inhibition/Concentration), range",[1]; range among individual rats,0.738-1.55 % Inhibition/Concentration
same,IC50,[1]; [7],100 to 236 µM
same,"Slope (% Inhibition/Concentration), mean ± S.D.",[1],1.20 ± 0.340 % Inhibition/Concentration
"O=C1C(Cl)=CC(=Nc2ccc(O)cc2)C=C1Cl [2,6-DIP, 2,6-dichloroindophenol sodium]",IC50,[1]; [6],116 ± 39.2 µM
same,"Slope (% Inhibition/Concentration), range",[1]; range among individual rats,0.940-1.36 % Inhibition/Concentration
same,IC50,[1]; [7],78.1 to 160 µM
same,"Slope (% Inhibition/Concentration), mean ± S.D.",[1],1.13 ± 0.174 % Inhibition/Concentration
"ClC(Cl)(Cl)Cl [CCl4, carbon tetrachloride]",Normalized P∞,[2],6.58 dpm ^14 C incorporated/mg prot and 9.86 dpm ^14 C incorporated/mg prot and 9.04 dpm ^14 C incorporated/mg prot
same,V/KM (intrinsic formation rate of carboxylated vitamin K-dependent proteins),[2],0.0798 min⁻¹ and 0.0944 min⁻¹ and 0.1257 min⁻¹
same,reduction in V/KM,[2]; two rats receiving 1.0 ml CCl4/kg,20-30%
same,average turnover time of PCA,[3]; group average,3.27 ± 1.34 h
same,biologic half-life of PCA,[3]; group average,2.27±0.94 hours
same,"kd, average of treated rats",[3]; group average,9.83e-05 ± 5.43e-05 s⁻¹
same,kd (first-order rate constant for degradation of PCA),[3]; listed as OCl4,6.92e-05 s⁻¹ and 0.0001609 s⁻¹ and 6.82e-05 s⁻¹
same,R°Syn (rate of synthesis of PCA),[3]; listed as OCl4,101 %/day and 137 %/day
same,PCA° (steady-state prothrombin complex activity before warfarin),[3]; listed as OCl4,16.9% and 9.9% and 23.4%
same,reduction in R°Syn,[3],approximately 62%
"CC(=O)CC(c1ccccc1)c1c(O)c2ccccc2oc1=O (stereo not shown) [Warfarin, warfarin]","Slope (% Inhibition/Concentration), range",[1]; range among individual rats,0.637-2.20 % Inhibition/Concentration
same,"IO (percent inhibition when C = 0), mean",[1],8.89 ± 3.77%
same,"IO (percent inhibition when C = 0), mean",[1]; listed as warfarin,8.9%
same,"IO (percent inhibition when C = 0), range","[1]; third fit parameter, range among rats",2.74-13.1%
same,IC50,"[1]; warfarin, logistic fit with IO as third parameter, read-out: IC50 (mean ± S.D.)",6630 ± 2850 µM
same,plasma prothrombin complex activity at the time of sacrifice,[4],~6 % of normal
same,LD50 (may actually be as high as),[5]; in rats,10 to 50 mg/kg
same,LD50 (assumed),"[5]; intravenously administered, assumed value",0.2 mg/kg
"C/C(=C\CC1=C(Cl)C(=O)c2ccccc2C1=O)CCC[C@H](C)CCC[C@H](C)CCCC(C)C [Chloro-K1, 2-Chloro-3-phytyl-1,4-naphthoquinone]",IC50,[1]; [6],285 ± 89.3 µM
same,"Slope (% Inhibition/Concentration), range",[1]; range among individual rats,0.469-0.898 % Inhibition/Concentration
same,IC50,[1]; [7],171 to 393 µM
same,"Slope (% Inhibition/Concentration), mean ± S.D.",[1],0.634 ± 0.159 % Inhibition/Concentration
